PMC4462585, “Synthesis and Biological Evaluation of 3-Alkyl-1,5-Diaryl-1H-Pyrazoles as Rigid Analogues of Combretastatin A-4 with Potent Antiproliferative Activity” (PLoS ONE, 2015)

Legend:
[1] = test system: pulmonary adenocarcinoma cell line A549; experiment: MTT antiproliferative assay, A549; type: cell-based; settings: Homo sapiens, 72 h drug exposure, triplicate, read-out: Antiproliferative activity (IC50 ± SD) A549
Excerpt: (§1) Pulmonary adenocarcinoma cell lines (A549) and gastric adenocarcinoma cell lines (SGC-7901) were provided as gifts (purchased from the Cell Resource Center of Shanghai Institutes for Biological Sciences) from the China-Japan Research Institute of Medical and Pharmaceutical Sciences, Shenyang Pharmaceutical University. Fibrosarcoma cell lines (HT-1080) were purchased from the Cell Resource Center of Shanghai Institutes for Biological Sciences. All cells were maintained in DMEM containing 1% antibiotics (100 units of penicillin and […] per mL in 0.9% normal saline) and 10% foetal bovine serum in a humidified atmosphere containing 5% CO2 at 37°C.
(§2) Antiproliferative activities of CA-4 and the target compounds were measured using a colourimetric assay using 3-(4,5-dimethylthiazol-2yl-)-2,5-diphenyltetrazolium bromide (MTT). Approximately 3 × 10^4 cells were seeded in a 96-well plate. After 24 h of incubation at 37°C, cells were exposed to compounds of differing concentrations (0.0008 μg/mL, 0.004 μg/mL, 0.02 μg/mL, 0.10 μg/mL, 0.50 μg/mL, 2.5 μg/mL, 12.5 μg/mL, 62.5 μg/mL) for 72 h. After treatment, cells were washed with 1X PBS followed by addition of 100 μL of 0.05% MTT reagent to each well, followed by incubation for 4 h at 37°C. After incubation, the supernatant from each well was carefully removed and the formazan crystals were dissolved in 100 μL of DMSO. The colour density was measured spectrophotometrically at 490 nm using a microplate reader (SpectraMax Plus384, Molecular Devices Corp., USA). The percentage of cell growth inhibition was calculated as follow: inhibition ratio % = (Acontrol—Atreated) / Acontrol × 100%. The 50% inhibitory concentration (IC50) was defined as the concentration that reduced the absorbance of the untreated wells by 50% of the vehicle in the MTT assay.

[2] = test system: fibrosarcoma cell line HT-1080; experiment: MTT antiproliferative assay, HT-1080; type: cell-based; settings: Homo sapiens, 72 h drug exposure, triplicate, read-out: Antiproliferative activity (IC50 ± SD) HT-1080
Excerpt: as §1, §2

[3] = test system: gastric adenocarcinoma cell line SGC-7901; experiment: MTT antiproliferative assay, SGC-7901; type: cell-based; settings: Homo sapiens, 72 h drug exposure, triplicate, read-out: Antiproliferative activity (IC50 ± SD) SGC-7901
Excerpt: as §1, §2

melting point | IC50 [1] | IC50 [2] | IC50 [3] | Structure (SMILES)
149 to 150 °C | > 100 µM | > 100 µM | > 100 µM | CCCc1cc(-c2ccc(OC)c([N+](=O)[O-])c2)n(-c2cc(OC)c(OC)c(OC)c2)n1 [Compound 7q, 3-Propyl-5-(4-methoxy-3-nitrophenyl)-1-(3,4,5-trimethoxyphenyl)-1H-pyrazole]
69 to 70 °C | 28.2 ± 1.7 µM | 11.9 ± 1.9 µM | 2.43 ± 0.09 µM | COc1cc(-c2cc(C)nn2-c2cc(N)ccc2C)cc(OC)c1OC [Compound 8e, 3-Methyl-1-(5-amino-2-methylphenyl)-5-(3,4,5-trimethoxyphenyl)-1H-pyrazole]
102 to 103 °C | 48.6 ± 1.1 µM | > 100 µM | 31.1 ± 2.5 µM | COc1cc(-c2cc(C)nn2-c2cc([N+](=O)[O-])ccc2C)cc(OC)c1OC [Compound 8d, 3-Methyl-1-(2-methyl-5-nitrophenyl)-5-(3,4,5-trimethoxyphenyl)-1H-pyrazole]
88 to 89 °C | > 100 µM | > 100 µM | > 100 µM | COc1cc(-c2cc(C)nn2-c2ccccc2)cc(OC)c1OC [Compound 8a, 3-Methyl-1-phenyl-5-(3,4,5-trimethoxyphenyl)-1H-pyrazole]
118 to 119 °C | > 100 µM | > 100 µM | > 100 µM | COc1ccc(-n2nc(C)cc2-c2cc(OC)c(OC)c(OC)c2)cc1[N+](=O)[O-] [Compound 8f, 3-Methyl-1-(4-methoxy-3-nitrophenyl)-5-(3,4,5-trimethoxyphenyl)-1H-pyrazole]
67 to 68 °C | 9.39 ± 0.21 µM | 28.2 ± 1.9 µM | 19 ± 2 µM | COc1ccc(-n2nc(C)cc2-c2cc(OC)c(OC)c(OC)c2)cc1 [Compound 8b, 3-Methyl-1-(4-methoxyphenyl)-5-(3,4,5-trimethoxy-phenyl)-1H-pyrazole]
70 to 71 °C | 16.2 ± 1 µM | 15.6 ± 1.5 µM | 11.8 ± 1.2 µM | COc1cc(-c2cc(C)nn2-c2ccc(C)cc2)cc(OC)c1OC [Compound 8c, 3-Methyl-1-(4-methylphenyl)-5-(3,4,5-trimethoxy-phenyl)-1H-pyrazole]
114 to 115 °C | 3.55 ± 0.09 µM | 8.16 ± 0.12 µM | 4.62 ± 0.09 µM | CCc1cc(-c2ccc(OC)c(N)c2)n(-c2cc(OC)c(OC)c(OC)c2)n1 [Compound 7r, 3-Ethyl-5-(3-amino-4-methoxyphenyl)-1-(3,4,5-trimethoxyphenyl)-1H-pyrazole]
128 to 129 °C | 79.1 ± 2 µM | 15.9 ± 3.2 µM | 14.3 ± 3.1 µM | COc1ccc(-c2c(Br)c(C)nn2-c2cc(OC)c(OC)c(OC)c2)cc1N [Compound 7o, 4-Bromo-3-methyl-5-(3-amino-4-methoxyphenyl)-1-(3,4,5-trimethoxyphenyl)-1H-pyrazole]
151 to 152 °C | > 100 µM | > 100 µM | > 100 µM | CCc1cc(-c2ccc(OC)c([N+](=O)[O-])c2)n(-c2cc(OC)c(OC)c(OC)c2)n1 [Compound 7p, 3-Ethyl-5-(4-methoxy-3-nitrophenyl)-1-(3,4,5-trimethoxyphenyl)-1H-pyrazole]
98 to 99 °C | > 100 µM | > 100 µM | > 100 µM | C=CCOc1cc(-n2nc(C)cc2-c2cc(OC)c(OC)c(OC)c2)ccc1OC [Compound 8h, 3-Methyl-1-(3-allyloxy-4-methoxyphenyl)-5-(3,4,5-trimethoxyphenyl)-1H-pyrazole]
125 to 126 °C | 56.6 ± 1 µM | 23.2 ± 0.11 µM | 35.7 ± 0.08 µM | CCCc1cc(-c2ccc(OC)c(N)c2)n(-c2cc(OC)c(OC)c(OC)c2)n1 [Compound 7s, 3-Propyl-5-(3-amino-4-methoxyphenyl)-1-(3,4,5-trimethoxyphenyl)-1H-pyrazole]
167 to 168 °C | 21.8 ± 2.1 µM | 15 ± 0.9 µM | 13.7 ± 1.2 µM | COc1ccc(-n2nc(C)cc2-c2cc(OC)c(OC)c(OC)c2)cc1O [Compound 8i, 3-Methyl-1-(3-hydroxy-4-methoxyphenyl)-5-(3,4,5-trimethoxyphenyl)-1H-pyrazole]

Second part, the compound before the results:

Structure (SMILES) | melting point | IC50 [1] | IC50 [2] | IC50 [3]
COc1ccc(-c2c(Br)c(C)nn2-c2cc(OC)c(OC)c(OC)c2)cc1[N+](=O)[O-] [Compound 7n, 4-Bromo-3-methyl-5-(4-methoxy-3-nitrophenyl)-1-(3,4,5-trimethoxyphenyl)-1H-pyrazole] | 182 to 183 °C | > 100 µM | > 100 µM | > 100 µM
COc1ccc(-c2cc(C)nn2-c2cc(OC)c(OC)c(OC)c2)cc1 [Compound 7b, 3-Methyl-5-(4-methoxyphenyl)-1-(3,4,5-trimethoxy-phenyl)-1H-pyrazole] | 118 to 119 °C | 15.2 ± 2.2 µM | 1.01 ± 0.12 µM | 0.73 ± 0.09 µM
COc1ccc(-c2cc(C)nn2-c2cc(OC)c(OC)c(OC)c2)cc1F [Compound 7e, 3-Methyl-5-(3-fluoro-4-methoxyphenyl)-1-(3,4,5-trimethoxyphenyl)-1H-pyrazole] | 86 to 87 °C | 2.84 ± 0.52 µM | 5.52 ± 0.26 µM | 3.05 ± 0.33 µM
COc1cc(-n2nc(C)cc2-c2ccccc2)cc(OC)c1OC [Compound 7a, 3-Methyl-5-phenyl-1-(3,4,5-trimethoxyphenyl)-1H-pyrazole] | 77 to 78 °C | > 100 µM | > 100 µM | > 100 µM
COc1ccc(-c2cc(C)nn2-c2cc(OC)c(OC)c(OC)c2)cc1[N+](=O)[O-] [Compound 7h, 3-Methyl-5-(4-methoxy-3-nitrophenyl)-1-(3,4,5-trimethoxyphenyl)-1H-pyrazole] | 145 to 146 °C | > 100 µM | > 100 µM | 5.22 ± 0.19 µM
COc1cc(-n2nc(C)cc2-c2ccc(F)cc2)cc(OC)c1OC [Compound 7d, 3-Methyl-5-(4-fluorophenyl)-1-(3,4,5-trimethoxyphenyl)-1H-pyrazole] | 104 to 105 °C | > 100 µM | > 100 µM | 20.7 ± 1.2 µM
C=CCOc1cc(-c2cc(C)nn2-c2cc(OC)c(OC)c(OC)c2)ccc1OC [Compound 7g, 3-Methyl-5-(3-allyloxy-4-methoxyphenyl)-1-(3,4,5-trimethoxyphenyl)-1H-pyrazole] | 79 to 80 °C | > 100 µM | > 100 µM | 6.45 ± 0.22 µM
COc1ccc(-n2nc(C)cc2-c2cc(OC)c(OC)c(OC)c2)cc1N [Compound 8g, 3-Methyl-1-(3-amino-4-methoxyphenyl)-5-(3,4,5-trimethoxyphenyl)-1H-pyrazole] | 56 to 57 °C | 21.4 ± 1.2 µM | 24.7 ± 2.3 µM | 21.2 ± 1.6 µM
C=CCOc1ccc(-c2cc(C)nn2-c2cc(OC)c(OC)c(OC)c2)cc1OC [Compound 7f, 3-Methyl-5-(4-allyloxy-3-methoxyphenyl)-1-(3,4,5-trimethoxyphenyl)-1H-pyrazole] | 78 to 79 °C | > 100 µM | > 100 µM | 23.6 ± 2.3 µM
COc1cc(-c2cc(C)nn2-c2cc(OC)c(OC)c(OC)c2)ccc1O [Compound 7j, 3-Methyl-5-(4-hydroxy-3-methoxyphenyl)-1-(3,4,5-trimethoxyphenyl)-1H-pyrazole] | 197 to 198 °C | > 100 µM | > 100 µM | 25.9 ± 2.3 µM
COc1ccc(-c2c(CO)c(C)nn2-c2cc(OC)c(OC)c(OC)c2)cc1O [Compound 7m, 4-Hydroxymethyl-3-methyl-5-(3-hydroxy-4-methoxy-phenyl)-1-(3,4,5-trimethoxyphenyl)-1H-pyrazole] | 166 to 167 °C | 9.04 ± 0.25 µM | 7.11 ± 0.23 µM | 8.42 ± 0.32 µM
COc1ccc(-c2c(C=O)c(C)nn2-c2cc(OC)c(OC)c(OC)c2)cc1O [Compound 7l, 4-Formyl-3-methyl-5-(3-hydroxy-4-methoxyphenyl)-1-(3,4,5-trimethoxyphenyl)-1H-pyrazole] | 97 to 98 °C | 45.7 ± 3.3 µM | 23.8 ± 1.8 µM | 16.4 ± 1.5 µM
COc1cc(-n2nc(C)cc2-c2ccc(C)cc2)cc(OC)c1OC [Compound 7c, 3-Methyl-5-(4-methylphenyl)-1-(3,4,5-trimethoxy-phenyl)-1H-pyrazole] |  | 2.35 ± 0.33 µM | 1.23 ± 0.15 µM | 0.53 ± 0.2 µM
